From patent US6497900B2, “Effervescent base” (priority 1997, dated 2002)

Test: Breakdown of acid-sensitive active substances in the effervescent system
Assay type: physicochemical
Details: in the effervescent system according to the invention, also in a stress situation

For `NC(N)=Nc1nc(CSCCC(N)=NS(N)(=O)=O)cs1` [famotidine], the “tendency of active substance to break down and form decomposition products” value was “substantially lower tendency”.
